Holding throughout (format): binding, rabbit
In assay [1] the test system is Antiserum RY778 (anti-phthalic acid ester antibody). Description: ELISA for diethyl phthalate and cross-reactivity test. Conditions: for Cross-reactivity: relative to diethyl phthalate (calculated as 100%) at B/B0=50, antiserum RY778; for IC50: competitive ELISA, antiserum RY778, biotinylated diethyl phthalate derivative as labeled antigen. The protocol:
An ELISA system of the present invention for diethyl phthalate was designed in the following manner.
Diethyl phthalate was diluted as follows. A solution (857 μg/mL) of 12 mg of diethyl phthalate in 15.7% DMSO was 10-fold diluted with PBS buffer to give a standard solution (85.7 μg/ml). Five-fold dilution of the standard solution was repeated to give solutions of various concentrations (17.1 μg/ml, 3.4 μg/ml, 0.69 μg/ml, 0.137 μg/ml, 0.027 μg/ml and 0.005 μg/ml). These solutions were used as diluted standard antigen solutions.
Biotin-Arg-Lys-aminocapronyl-4-amino-diethyl phthalate synthesized in Example 1 (4) was diluted to 2 ng/ml with PBS buffer and used as a labeled antigen solution.
Antiserum RY778 (anti-phthalic acid ester antibody) synthesized in Example 4 was diluted 10,000-fold with PBS buffer (containing 0.1% BSA and 0.1% Tween 20) and used as an antibody solution.
Goat anti-rabbit IgG (Jackson Immuno Research) was diluted 200-fold with 0.1M phosphate buffer (pH8.0), and 100 μl of the diluted IgG was pipetted into each well of a 96-well microtiter plate (Maxi Sorp, Nunc). The plate was allowed to stand at 25° C. for 18 to 20 hours and then the supernatant was removed. Subsequently, 340 μl of Block Ace (Dainippon Pharmaceutical Co., Ltd.) was pipetted into each well and the plate was allowed to stand at 25° C. for 18 to 20 hours whereby blocking was completed.
After the plate was washed with a wash solution (0.15M NaCl containing 0.1% Tween 20) 5 times, 50 μl of a diluted standard antigen solution or sample, 50 μl of the labeled antigen solution and 100 μl of the antibody solution were added to each well. The culture was incubated at 4° C. for 18 to 20 hours. The plate was washed 3 times with 0.3 ml of the wash solution, and then 0.1 ml of a streptavidin-horseradish peroxidase conjugate (×2500) was added. After incubation at room temperature for 1.5 hours, the plate was washed with 0.3 ml of the wash solution 4 times and then a tetramethyl benzidine-containing colorant (0.1 ml, product of Sigma) was added. After 30 minutes of coloring, 2N sulfuric acid was added to stop the reaction. Absorbance at 450 nm was measured.
A standard curve for diethyl phthalate was obtained from the results of the diluted standard antigen solutions (FIG. 1). In FIG. 1, the ordinate denotes absorbance (at 450 nm) and the abscissa denotes standard antigen concentration (ng/ml).
The cross-reactivity of the antibody of the invention with diethyl phthalate and structurally similar compounds was tested using the ELISA system described in Example 5.
Cross-reactivity (%) is defined as the molar concentration of each test antigen, relative to the concentration of diethyl phthalate (calculated as 100%), at B/B0=50.

The test system of another assay is antiserum RY850. Description: ELISA for benzyl n-butyl phthalate and cross-reactivity test. Conditions: ELISA system for benzyl n-butyl phthalate. The procedure: An ELISA system of the invention for benzyl n-butyl phthalate was designed in a manner similar to that of Example 5, using benzyl n-butyl phthalate (product of Kanto Chemical Co., Inc.) as a standard antigen, using biotin-Arg-Lys-aminocapronyl-4-(or 5-)amino-benzyl n-butyl phthalate of Example 2 (2-6) as a labeled antigen and using antiserum RY850 (10,000-fold diluted) as an antiserum. The antiserum RY850 was prepared as in Example 4, but the aminocapronyl-4-(or 5-)amino-benzyl n-butyl phthalate of Example 2 (2-5) was used in place of aminocapronyl-4-amino-diethyl phthalate.
A standard curve for benzyl n-butyl phthalate was obtained (FIG. 2). In FIG. 2, the ordinate denotes absorbance (at 492 nm) and the abscissa denotes standard antigen concentration (ng/ml).
The cross-reactivity of the antibody of the invention with benzyl n-butyl phthalate and structurally similar compounds was determined using the ELISA system described in Example 8.

The next assay relates to antiserum RY849. In words: ELISA for di-n-butyl phthalate and cross-reactivity test. Conditions: ELISA system for di-n-butyl phthalate. The procedure:
An ELISA system of the invention for di-n-butyl phthalate was designed in a manner similar to that of Example 5, using di-n-butyl phthalate (product of Wako Pure Chemical Industries, Inc.) as a standard antigen, using biotin-Arg-Lys-aminocapronyl-4-amino-di-n-butyl phthalate of Example 2 (2-4) as a labeled antigen and using antiserum RY849 (10,000-fold diluted) as an antiserum. The antiserum RY849 was prepared as in Example 4, but the aminocapronyl-4-amino-di-n-butyl phthalate of Example 2 (2-3) was used in place of aminocapronyl-4-amino-diethyl phthalate of Example 4.
A standard curve for di-n-butyl phthalate was obtained (FIG. 3).
The cross-reactivity of the antibody of the invention with di-n-butyl phthalate and structurally similar substances was determined using the ELISA system described in Example 10.
(In general: An ELISA detects its analyte on a solid surface through an enzyme-linked reagent.)

Values after ≈ are worked out from the molar mass of the structure shown. Where a name gives a salt, the structure may show the parent alone.

As to `O=C(O)c1ccccc1` [Benzoic acid], the results for the Cross-reactivity in assay [1] and in assay [1] (listed as benzoic acid) were less than 0.001% and “less than 0.001%”, respectively.
`CCCCC(CC)COC(=O)c1ccccc1C(=O)OCC(CC)CCCC` (stereo not shown) [Di(2-ethylhexyl)phtalate]: in assay [1], the Cross-reactivity was less than 0.001%.
As to `CCCCOC(=O)c1ccccc1C(=O)OCCCC` [Dibutyl phthalate], the IC50 – broadly, the point on the concentration scale where inhibition reaches its midpoint – in assay [1] came to 3.893432 µg/mL (≈ 14 µM). For the same compound, the results for the Cross-reactivity (in assay [1]; in assay [1] (listed as dibutyl phthalate); in the assay with antiserum RY850) were 0.014%, “about 0.01%” and 38.9%, respectively.
Turning to `CCOC(=O)c1ccccc1C(=O)OCC` [Diethyl phthalate], the IC50 in assay [1] is 0.000546 µg/mL (≈ 0.00246 µM). Also, the Cross-reactivity is reported as 100% in assay [1], “high reactivity” in assay [1] (listed as diethyl phthalate) and 4% with antiserum RY849.
As to `COC(=O)c1ccccc1C(=O)OC` [Dimethyl phthalate], the IC50 in assay [1] amounted to 0.098178 µg/mL (≈ 0.506 µM). For the same compound, the Cross-reactivity was 0.556% in assay [1], “about 0.56%” in assay [1] (listed as dimethyl phthalate) and 1.2% with antiserum RY849.
`C/C(=C(/C)c1ccc(O)cc1)c1ccc(O)cc1` [Dimethyl stilbestrol]: the Cross-reactivity in assay [1] is reported as less than 0.001%; in assay [1] (listed as dimethyl stilbestrol) it was “does not show substantial cross-reactivity”.
Consider `CCOC(C)=O` [Ethyl acetate], for which, in assay [1], the IC50 was determined as 4.480033 µg/mL and the Cross-reactivity is 0.012%.
With `CCOC(=O)c1ccccc1` [Ethyl benzoate], in assay [1], the IC50 stood at 4.391316 µg/mL (≈ 29.2 µM) and the Cross-reactivity is reported as 0.012%.
With `CCOC=O` [Ethyl formate], in assay [1], the half-maximal inhibitory concentration (IC50) amounted to 3.001226 µg/mL and the Cross-reactivity is on record as 0.018%.
For `O=C(O)c1ccccc1C(=O)O` [Phthalic acid], in assay [1], the Cross-reactivity is recorded as less than 0.001%.
For the compound `CCCCOC(=O)c1ccccc1C(=O)OCc1ccccc1` [benzyl n-butyl phthalate], in the assay with antiserum RY849, the Cross-reactivity came out at 100%.
With `CC/C(=C(/CC)c1ccc(O)cc1)c1ccc(O)cc1` [diethyl stilbestrol], the Cross-reactivity in the assay with antiserum RY849 turned out to be 1.5%.
Regarding nonylphenol, the figures for the Cross-reactivity in the assay on antiserum RY850 and in the assay on antiserum RY849 were 2.3% and 3.4%, respectively.

The values are drawn from patent publication US6399318B1, “Immunoassay for phthalic acid esters” (Otsuka Pharmaceutical Co., Ltd., priority 2000, dated 2002).
